Data as given in ChEMBL document CHEMBL6134851, “Comparative Study on Covalent and Noncovalent Endogenous Albumin-Binding β-Glucuronidase-Activated SN38 Prodrugs for Antitumor Efficacy” (J Med Chem, 2025).
The source made the active and inactive calls. No cut-off for these calls is given here.

What was measured:
[1] = Toxicity in female BALB/cA nude mouse assessed as appearance of inflammatory lesions in tumor at 25 mg/kg, iv administered once a week for 35 days by H and E staining based analysis; type: organism-based; conditions: in vivo, 840 h, time 35 day
HCT-116 [2] = assay: Antitumor activity against human HCT-116 cells xenografted in female BALB/cA nude mouse model assessed as tumor shrinkage at 25 mg/kg, iv administered twice per week measured after 65 days relative to control; type: functional; conditions: time 65 day
[3] = Prodrug release in female BALB/c nude mouse tumor assessed as (S)-4,11-diethyl-4,9-dihydroxy-1,12-dihydro-14H-pyrano[3',4':6,7]indolizino[1,2-b]quinoline-3,14(4H)-dione accumulation at 25 mg/kg measured after 12 hr by HPLC analysis; type: ADME, organism-based, Neoplasm; conditions: in vivo
HCT-116 [4] = assay: Antitumor activity against human HCT-116 cells xenografted in female BALB/cA nude mouse model assessed as increase in tumor cell apoptosis by measuring increase in red fluorescence at 25 mg/kg, iv by TUNEL analysis; type: functional, organism-based
[5] = Toxicity in female BALB/cA nude mouse assessed as animal fatality at 38 mg/kg, iv administered once a week for 35 days; type: organism-based; conditions: in vivo, 840 h, time 35 day
HCT-116 [6] = assay: Antitumor activity against human HCT-116 cells xenografted in female BALB/cA nude mouse model assessed as increase in tumor cell apoptosis by measuring increase in red fluorescence at 38 mg/kg, iv by TUNEL analysis; type: functional, organism-based
[7] = Toxicity in female BALB/cA nude mouse assessed as appearance of fibrosis in lung at 38 mg/kg, iv measured after 24 hrs by H and E staining based analysis; type: organism-based; conditions: in vivo

Compound: CCc1c2c(nc3ccc(OCc4ccc(O[C@@H]5O[C@H](C(=O)O)[C@@H](O)[C@H](O)[C@H]5O)c(NC(=O)CCNC(=O)CCCCCN5C(=O)C=CC5=O)c4)cc13)-c1cc3c(c(=O)n1C2)COC(=O)[C@]3(O)CC
- Activity [1]: Non-toxic
- Activity (HCT-116 [2]): 100%
- Drug metabolism [3]: 0.725 % ID/g
- Activity (HCT-116 [4]): Active

Compound: CCc1c2c(nc3ccc(OCc4ccc(O[C@@H]5O[C@H](C(=O)O)[C@@H](O)[C@H](O)[C@H]5O)c(NC(=O)CCNC(=O)COCCOCCNC(=O)COCCOCCNC(=O)CC[C@H](NC(=O)CCCCCCCCCCCCCCCCC(=O)O)C(=O)O)c4)cc13)-c1cc3c(c(=O)n1C2)COC(=O)[C@]3(O)CC
- Activity [5]: Non-toxic
- Activity (HCT-116 [6]): Active
- Activity [7]: Toxic
